What was measured:
Format in all cases: in vivo, Donryu rats
tumor tissue [1] = assay: Permeability of Evans Blue in tumor tissue, beraprost sodium arterially administered vs not administered; conditions: 2 μg injected into common iliac artery; A 136B solid tumor on dorsum of foot; P<0.01
Experimental: (§1) A 136B cells were transplanted to dorsa of feet of Donryu rats to form solid tumors. To each of the tumor-bearing rats, 0.5 mL of solution of Evans Blue (1.5%) in physiological saline was administered i.v. and then 2 μg of beraprost sodium was injected into common iliac artery which is the tumor-controlling artery. The blood vessel perneability-increasing effect was evaluated by comparing the amounts of the accumulated Evans Blue-albumin complex in the tissue, which is the index of the blood vessel permeability in the tumor tissue, of the beraprost sodium-administered group and of the non-administered group. As a result, it was observed that by administration of 2 μg of beraprost sodium, the blood vessel permeability was increased to about 3.4 times that of the non-administered group (P<0.01). The amount of the accumulated Evans Blue was spectrophotometrically quantified after extraction with formamide at 30° C. for 48 hours.

tumor tissue [2] = assay: Permeability of Evans Blue in various tissues, beraprost sodium intravenously administered vs not administered; conditions: 20 μg injected into the tail vein; tumor-bearing rats; P<0.05
Experimental: as §1, with “hours. […] The blood vessel permeability-increasing effect was evaluated by comparing the amounts of the accumulated Evans Blue-albumin complex in the tissues of the beraprost sodium-administered group and of the non-administered group. […] The amount of the accumulated Evans Blue was quantified in the same manner as in Example 1.” for “hours.”

tumor tissue [3] = assay: Change in blood flow in various tissues after 0.2, 2 or 20 μg beraprost sodium (Doppler type blood flowmeter); conditions: 0.2, 2 or 20 μg injected
Experimental: as §1, with “hours. Into common iliac artery which is the tumor-controlling artery of the tumor on the dorsum of foot of each of the tumor-bearing rats prepared in the same manner as in Examples 1 to 3, 0.2, 2, or 20 μg of beraprost sodium was arterially injected and the change in the blood flow was measured by a Doppler type blood flowmeter. […]” for “hours.”

tumor tissue [4] = assay: Change in blood flow in various tissues by continuous arterial injection (Doppler type blood flowmeter)
Experimental: as §1, with “hours. Into common iliac artery which is the tumor-controlling artery of the tumor on the dorsum of foot of each of the tumor-bearing rats prepared in the same manner as in Examples 1 and 2, 0.3 mL of beraprost sodium solution (30 μg/mL) in middle-length fatty acid was arterially injected continuously for 1 minute. The changes in the blood flow in various tissues were measured by a Doppler type blood flowmeter. The rate of change was expressed in terms of % of the average during 10 minutes after the beginning of the arterial injection based on the average during several minutes before the arterial injection. […] This was the phenomenon brought about by the specific relaxation of the blood vessels in the tumor tissues.” for “hours.”

Which results are given for `CC#CCC(C)[C@H](O)/C=C/C1[C@H](O)C[C@@H]2Oc3c(CCCC(=O)O)cccc3[C@H]12` (stereo partly shown) [beraprost sodium]?
blood vessel permeability (accumulated Evans Blue-albumin complex in tumor tissue) (tumor tissue [1]): about 3.4 times that of the non-administered group; blood vessel permeability (accumulated Evans Blue-albumin complex in the tissues) (tumor tissue [2]): about 1.5 times that of the non-administered group; decrease in the blood flow in normal tissue organs such as liver and kidney (tumor tissue [3]): not observed; blood flow in the tumor (tumor tissue [3]; average during 10 minutes after start vs before): Sharp decrease; blood flow in the tumor compared with kidney (tumor tissue [4]; continuous arterial injection at 10 μg/kg/min, P<0.05): significantly more decreased than in kidney; blood flow in the tumor compared with kidney and liver (tumor tissue [4]; continuous arterial injection at 17 μg/kg/min, tumor vs. liver P<0.05, tumor vs. kidney P<0.01): significantly more decreased than in kidney and in liver; blood flow in the tumor tissue (tumor tissue [4]; continuous arterial injection for 1 minute into common iliac artery, average during 10 minutes after start vs before): sharply decreased dose-dependently
